Columns and labels:
[1] = system: mice; assay: Capsaicin-induced neurogenic pain test; assay type: in vivo; conditions: Mus musculus, ip; mice i.p.
Description: We used the capsaicin-induced pain model to test the impact of compound 14 on neurogenic pain. In this model, the activation of TRPV1 receptors on C-type primary afferents led to the release of inflammatory neuropeptides, contributing to the local and spinal sensitization and excitability.
The experiments were conducted on adult male Albino Swiss mice (CD-1, 18–25 g) and male Wistar rats (Krf:(WI) WU), 180–250 g) as described previously. The minimum number of animals used needed to obtain definite and normally distributed results with the utilized test. Behavioral measures were scored by trained observers, which were blind to experimental conditions. The following devices were used in the experiments: Analgesy Meter (37215, Ugo Basile), Plantar Test Apparatus (EFV5, Commat Ltd., Turkey), Plethysmometer (Plethysmometer 7140, Ugo Basile), Electronic von Frey unit (BIOSEB, France). […]
Data were presented as means ± standard error of the mean (S.E.M). […] Statistically significant differences between groups were calculated using one-way analysis of variance (ANOVA) and the post hoc Dunnett’s multiple comparison test or two-way analysis of variance (ANOVA) and the post hoc Tukey’s comparison when appropriate. […]

[2] = target: T1, CYP2D6 (Homo sapiens, UniProt P10635); assay: CYP2D6 P450-Glo luminescent assay; assay type: in vitro ADME; conditions: 1 and 10 µM
T1 construct: purchased Promega (Madison, WI, USA)

[3] = system: mice; assay: Maximal electroshock seizure (MES) test; assay type: in vivo, mouse; conditions: mice i.p.
[4] = system: mice; assay: Timed ivPTZ seizure threshold test; assay type: in vivo, mouse
Text: The timed ivPTZ test was employed to evaluate the acute effect of compound 14 on the seizure thresholds for (1) the first myoclonic twitch, (2) generalized clonic seizure with the loss of the righting reflex, and (3) forelimb tonus. The experimental procedure has been described in detail elsewhere.
In this study, we used adult male Swiss albino mice (Kołacz, Laboratory Animals Breeding, Warszawa, Poland) license no. 106/2019 (Local Ethical Committee in Lublin). In studies assessing the acute effect of compound 14 on neuromuscular strength, body temperature, and seizure threshold, compound 14 was suspended in a 1% solution of Tween 80 and administered i.p., 30 min before the tests.
The timed ivPTZ test was employed to evaluate the acute effect of compound 14 on the seizure thresholds for (1) the first myoclonic twitch, (2) generalized clonic seizure with loss of righting reflex, and (3) forelimb tonus. The experimental procedure was described in detail elsewhere. The changes in temperature were recorded using an electronic thermometer (ThermoWorks, Alpine, UT, USA). Mice were gently restrained and a rectal probe was inserted to a depth of ~2 cm into the rectum.
Figure 2 Acute effect of compound 14 on the threshold for the first myoclonic twitch (panel (A)), generalized clonus (panel (B)), and forelimb tonus (panel (C)) in the ivPTZ seizure threshold test in mice. Compound 14 was administered i.p. 30 min before the seizure test. Control animals received vehicle only. Each experimental group consisted of 9–11 animals. Each bar represents the mean (mg/kg PTZ) + S.E.M. * p < 0.05; ** p < 0.01 vs. the control group (one-way ANOVA, followed by Dunnett’s post hoc test, GraphPad Prism 8.0.1).

[5] = 30 mg/kg i.p., 30 min before test

T1 sequence (P10635 whole entry): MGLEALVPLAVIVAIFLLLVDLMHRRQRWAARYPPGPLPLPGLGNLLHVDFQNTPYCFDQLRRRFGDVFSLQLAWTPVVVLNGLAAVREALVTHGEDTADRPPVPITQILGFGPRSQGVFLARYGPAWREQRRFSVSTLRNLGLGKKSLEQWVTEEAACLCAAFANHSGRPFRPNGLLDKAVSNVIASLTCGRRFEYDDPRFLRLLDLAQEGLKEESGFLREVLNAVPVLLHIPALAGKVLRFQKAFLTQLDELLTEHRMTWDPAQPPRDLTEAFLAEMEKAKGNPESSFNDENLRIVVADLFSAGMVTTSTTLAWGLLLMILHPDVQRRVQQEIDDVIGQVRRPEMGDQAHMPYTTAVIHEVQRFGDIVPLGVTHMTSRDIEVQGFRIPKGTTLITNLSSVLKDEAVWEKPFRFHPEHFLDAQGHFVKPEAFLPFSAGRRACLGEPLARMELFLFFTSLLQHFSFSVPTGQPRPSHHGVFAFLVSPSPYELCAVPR

CN(C)C1CC(=O)N(C(C(=O)N2CCN(c3cccc(C(F)(F)F)c3)CC2)c2ccccc2)C1=O.Cl (stereo not shown) [Compound 14, 3-(Dimethylamino)-1-(2-oxo-1-phenyl-2-(4-(3-(trifluoromethyl)phenyl)-piperazin-1-yl)ethyl)pyrrolidine-2,5-dione hydrochloride]
ED50 [1]: 54.1 mg/kg | effect on CYP2D6 activity [2]: significant activation | ED50 ([3]; Mus musculus, ip, 95% confidence interval in parentheses): 49.6 mg/kg | MES screening: number of mice protected / number of mice tested ([3]; 100 mg/kg, 0.5 h): 4/4 | protection in the MES test ([3]; 100 mg/kg, 0.5 h): 100% | effect on threshold for generalized clonus (ivPTZ) [4, 5]: did not significantly affect | effect on threshold for the first myoclonic twitch (ivPTZ) [4, 5]: did not significantly affect | effect on threshold for generalized clonic seizure (ivPTZ) ([4]; 60 mg/kg i.p., 30 min before test, p < 0.01): slightly increased | effect on threshold for the first myoclonic twitch (ivPTZ) ([4]; 60 mg/kg i.p., 30 min before test, p < 0.05): slightly increased | effect on threshold for forelimb tonic extension (ivPTZ) ([4]; 30 and 60 mg/kg i.p.): No statistically significant changes
